In patent US20180156826A1, “COMPOSITIONS AND METHODS FOR DIAGNOSIS OF AUTISM SPECTRUM DISORDER” (The Board of Regents of the University of Texas System, priority 2015, published 2018):
Square brackets hold non-standard residues; d marks the D form. Peptide text beside a SMILES is read from it. ξ: configuration not given here. N(3,4-(MeO)2phenethyl)Gly = COc1ccc(CCNCC(=O)O)cc1OC; Gly(N-(CH2)3OMe) = COCCCNCC(=O)O; Gly(N-cHex) = O=C(O)CNC1CCCCC1; Nleu = CC(C)CNCC(=O)O; Nme = COCCNCC(=O)O; ξC = NC(CS)C(=O)O

Assays:
serum IgG1 = assay: Peptoid ELISA, IgG1 subclass detection; format: binding, human
Protocol: (§1) Peptoid compounds were immobilized onto maleimide-activated 96-well plates (Pierce Biotechnology, Rockford, Ill.) by dissolving them to 0.03-0.05 mM in a 0.1 M sodium phosphate, 0.15 M sodium chloride, 10 mM EDTA solution adjusted to pH 7.2 and incubating with shaking for 3 hrs at RT. Plates were washed with PBST and blocked with a 5% goat serum (Thermo Scientific, Rockford, Ill.) in PBST solution for 1 hr at RT. Plates were washed again and incubated with target (serum) samples diluted in blocking buffer (1:1 PBST-1% BSA and SuperBlock) for 2 hrs at RT. After washing, plates were incubated with Goat anti-Human IgG-Fc-HRP conjugate (Bethyl Laboratories, Montgomery, Tex.) diluted 1:30,000 in PBST-1% BSA or mouse anti-human IgG1 (hinge)-HRP conjugate (SouthernBiotech, Birmingham, Ala.) diluted 1:1000 in PBST-1% BSA for 30 min at RT. After another wash, plates were incubated in TMB substrate for 16 min at RT and stopped with 2M H2SO4. Plates were read at 450 nm. All samples were run in duplicate, and every assay contained ASD and TD serum pool samples to serve as internal controls. Results for individual samples were assessed as ratios to the ASD serum pool so as to control for plate-to-plate variation.

serum IgG = assay: Peptoid ELISA, total IgG detection with serum pools; format: binding, human; details: pooled serum of 10 TD males vs 10 ASD males
Protocol: as §1
Using the same two serum pools as used during screening, the “hit” peptoids were then tested by ELISA for their ability to bind IgG from the two pools. […]

- ASD1 binding, ASD females (serum IgG1; ASD female serum samples, n=10): 1.76±0.81
- ASD1 binding, TD females (serum IgG1; TD female serum samples, n=20): 1.97±0.38
- ASD1 binding of IgG1 from ASD males (serum IgG1; individual ASD male serum samples, n=50, 1:100 dilution, ratio of sample absorbance to control serum pool, error SEM): 1.33±0.31
- ASD1 binding of IgG1 from TD males (serum IgG1; individual TD male serum samples, n=43, 1:100 dilution, ratio of sample absorbance to control serum pool, error SEM): 2.88±0.55
- differentiation in binding between the serum pools, secondary antibody specific to IgG1 subclass (serum IgG1; pooled serum of 10 TD males vs 10 ASD males): nearly four-fold
- differentiation in binding between the serum pools, total IgG (serum IgG): two-fold
Compound: COCCCN(CC(=O)N(CCc1ccc(OC)c(OC)c1)CC(=O)N(CC(=O)N(CC(=O)N(CCCOC)CC(=O)N(CC(=O)N(CCOC)CC(=O)NC(CS)C(N)=O)C1CCCCC1)CC(C)C)C1CCCCC1)C(=O)CNCCc1ccc(OC)c(OC)c1 (stereo not shown) [ASD1] (H-[N(3,4-(MeO)2phenethyl)Gly][Gly(N-(CH2)3OMe)][N(3,4-(MeO)2phenethyl)Gly][Gly(N-cHex)][Nleu][Gly(N-(CH2)3OMe)][Gly(N-cHex)][Nme][ξC]-NH2)
- ASD1 binding of IgG1 from older adult males (serum IgG1; older adult male serum, n=53, compared with ASD and TD males): did not differ from that of the ASD males, but was significantly lower than that of the TD males
